# Results published in patent US20150148235A1, “HERBICIDE-RESISTANT SUNFLOWER PLANTS WITH MULTIPLE HERBICIDE RESISTANT ALLELES OF AHASL1 AND METHODS OF USE” (NIDERA S.A., priority 2013, published 2015).
# Key:
# [1] = system: sunflower hybrids and lines (A122T, A205V, A205V/A122T); test: Field trial North Dakota 2006, phytotoxicity ratings after imazamox or imazapyr, Example 3; format: in vivo, Helianthus annuus; conditions: for phytotoxicity: 200 g ai/ha
# Description: • Spray volume: 10 gallons per acre (GPA) (or 100 liters/ha) for backpack sprayer or 20 GPA (or 200 liters/ha) for tractor mounted boom • Growth Stage at Herbicide Application: 2-4 leaves
# Entry 15 (WT Maintainer line) was left unsprayed in all treatment blocks.
# Phytotoxicity ratings were assessed at 7 and 21 days following herbicide application.
# The data was subjected to an ANOVA analysis and the means from the 3 repetitions are presented in Table 7 (phytotoxicity at 7 days post-treatment) and Table 8 (phytotoxicity at 21 days post-treatment).
# [2] = system: AHAS enzyme, A205V Homozygous sunflower; test: AHAS enzyme activity assay, leaf extract; format: biochemical, Helianthus annuus
# Description: (§1) Twelve greenhouse grown sunflower plants from each of the lines depicted in Table 21 were bulked and subjected to an AHAS enzyme activity assay via the method of Singh et al. (1988) Anal. Biochem. 171:173-179. Each activity assay was repeated twice. Due to the large number of samples, the experiment was split into two sets (Table 21).
# (§2) Young, actively growing leaves, from four week old plantlets, were ground in a mortar and pestle with liquid N2 and extracted with a buffer composed of 100 mM Pyruvate, 200 mM KH2PO4, 20 mM MgCl2, 2 mM thiamine pyrophosphate and […]. Plant extracts were then spun through a 10 mL Zeba TM desalt spin column (Pierce #89893) as per the manufacturer's recommendation. The inhibition assay was performed as described by Singh et al. (1988) Anal. Biochem. 171:173-179. Assays were conducted in a 96-well format. Fifty μl of inhibitor was added to each well containing 50 μl of soluble protein extract to give final concentrations of 0.78, 1.56, 3.125, 6.25, 12.5, 25, 50 and 100 μM imazamox or 0.78, 1.56, 3.125, 6.25, 12.5, 25, 50 and 100 μM imazapyr. Zero herbicide controls were also included for each line. Reactions were processed as outlined by Singh et al. (1988) Anal. Biochem. 171:173-179. Absorbance was measured at 530 nm. AHAS activity, expressed as the mean of the absorbance values for each treatment, was presented as a percentage of the mean of the zero-herbicide controls.
# [3] = system: AHAS enzyme, A122T/A205V Heterozygous sunflower; test: AHAS enzyme activity assay, leaf extract; format: biochemical, Helianthus annuus; conditions: A122T/A205V heterozygous hybrid (Set 1); 100 μM
# Description: as §1, §2
# [4] = system: AHAS enzyme, A122T Homozygous sunflower; test: AHAS enzyme activity assay, leaf extract; format: biochemical, Helianthus annuus
# Description: as §1, §2
structure (smiles),measurement,setting,value
COCc1cnc(C2=NC(C)(C(C)C)C(=O)N2)c(C(=O)O)c1 (centres unmarked) [imazamox],Phytotoxicity Rating (% Crop Injury),"[1]; 10-hybrid (IMI CMS × GM40 restorer, A205/A122 hetero/double), 200 g ai/ha + 0.25% NIS, 21 DAT",1.7%
same,Phytotoxicity Rating (% Crop Injury),"[1]; 11-hybrid (GM40 CMS × IMI restorer, A205/A122 hetero/double), 50 g ai/ha + 0.25% NIS, 7 DAT",0.0%
same,Phytotoxicity Rating (% Crop Injury),"[1]; 11-hybrid (GM40 CMS × IMI restorer, A205/A122 hetero/double), 50 g ai/ha + 0.25% NIS, 21 DAT",0.0%
same,Phytotoxicity Rating (% Crop Injury),"[1]; 11-hybrid (GM40 CMS × IMI restorer, A205/A122 hetero/double), 100 g ai/ha + 0.25% NIS, 7 DAT",3.3%
same,Phytotoxicity Rating (% Crop Injury),"[1]; 11-hybrid (GM40 CMS × IMI restorer, A205/A122 hetero/double), 100 g ai/ha + 0.25% NIS, 21 DAT",0.0%
same,Phytotoxicity Rating (% Crop Injury),"[1]; 11-hybrid (GM40 CMS × IMI restorer, A205/A122 hetero/double), 200 g ai/ha + 0.25% NIS, 7 DAT",11.7%
same,Phytotoxicity Rating (% Crop Injury),"[1]; 11-hybrid (GM40 CMS × IMI restorer, A205/A122 hetero/double), 200 g ai/ha + 0.25% NIS, 21 DAT",3.3%
same,Phytotoxicity Rating (% Crop Injury),"[1]; 12-hybrid (IMI CMS × GM40 restorer, A205/A122 hetero/double), 50 g ai/ha + 0.25% NIS, 7 DAT",10.0%
same,Phytotoxicity Rating (% Crop Injury),"[1]; 12-hybrid (IMI CMS × GM40 restorer, A205/A122 hetero/double), 50 g ai/ha + 0.25% NIS, 21 DAT",3.3%
same,Phytotoxicity Rating (% Crop Injury),"[1]; 12-hybrid (IMI CMS × GM40 restorer, A205/A122 hetero/double), 100 g ai/ha + 0.25% NIS, 7 DAT",10.0%
same,Phytotoxicity Rating (% Crop Injury),"[1]; 12-hybrid (IMI CMS × GM40 restorer, A205/A122 hetero/double), 100 g ai/ha + 0.25% NIS, 21 DAT",3.3%
same,Phytotoxicity Rating (% Crop Injury),"[1]; 12-hybrid (IMI CMS × GM40 restorer, A205/A122 hetero/double), 200 g ai/ha + 0.25% NIS, 7 DAT",11.7%
same,Phytotoxicity Rating (% Crop Injury),"[1]; 12-hybrid (IMI CMS × GM40 restorer, A205/A122 hetero/double), 200 g ai/ha + 0.25% NIS, 21 DAT",3.3%
same,Phytotoxicity Rating (% Crop Injury),"[1]; 13-hybrid (GM40 CMS × GM40 restorer, A122 homo), 50 g ai/ha + 0.25% NIS, 7 DAT",3.3%
same,Phytotoxicity Rating (% Crop Injury),"[1]; 13-hybrid (GM40 CMS × GM40 restorer, A122 homo), 50 g ai/ha + 0.25% NIS, 21 DAT",0.0%
same,Phytotoxicity Rating (% Crop Injury),"[1]; 13-hybrid (GM40 CMS × GM40 restorer, A122 homo), 100 g ai/ha + 0.25% NIS, 7 DAT",5.0%
same,Phytotoxicity Rating (% Crop Injury),"[1]; 13-hybrid (GM40 CMS × GM40 restorer, A122 homo), 100 g ai/ha + 0.25% NIS, 21 DAT",1.7%
same,Phytotoxicity Rating (% Crop Injury),"[1]; 13-hybrid (GM40 CMS × GM40 restorer, A122 homo), 200 g ai/ha + 0.25% NIS, 7 DAT",10.0%
same,Phytotoxicity Rating (% Crop Injury),"[1]; 13-hybrid (GM40 CMS × GM40 restorer, A122 homo), 200 g ai/ha + 0.25% NIS, 21 DAT",3.3%
same,Phytotoxicity Rating (% Crop Injury),"[1]; 14-hybrid (GM40 CMS × GM40 restorer, A122 homo), 50 g ai/ha + 0.25% NIS, 7 DAT",5.0%
same,Phytotoxicity Rating (% Crop Injury),"[1]; 14-hybrid (GM40 CMS × GM40 restorer, A122 homo), 50 g ai/ha + 0.25% NIS, 21 DAT",0.0%
same,Phytotoxicity Rating (% Crop Injury),"[1]; 14-hybrid (GM40 CMS × GM40 restorer, A122 homo), 100 g ai/ha + 0.25% NIS, 7 DAT",6.7%
same,Phytotoxicity Rating (% Crop Injury),"[1]; 14-hybrid (GM40 CMS × GM40 restorer, A122 homo), 100 g ai/ha + 0.25% NIS, 21 DAT",3.3%
same,Phytotoxicity Rating (% Crop Injury),"[1]; 14-hybrid (GM40 CMS × GM40 restorer, A122 homo), 200 g ai/ha + 0.25% NIS, 7 DAT",11.7%
same,Phytotoxicity Rating (% Crop Injury),"[1]; 14-hybrid (GM40 CMS × GM40 restorer, A122 homo), 200 g ai/ha + 0.25% NIS, 21 DAT",5.0%
same,Phytotoxicity Rating (% Crop Injury),"[1]; 15-hybrid (WT × GM40 restorer, A122 hetero), 50 g ai/ha + 0.25% NIS, 7 DAT",10.0%
same,Phytotoxicity Rating (% Crop Injury),"[1]; 15-hybrid (WT × GM40 restorer, A122 hetero), 50 g ai/ha + 0.25% NIS, 21 DAT",6.7%
same,Phytotoxicity Rating (% Crop Injury),"[1]; 15-hybrid (WT × GM40 restorer, A122 hetero), 100 g ai/ha + 0.25% NIS, 7 DAT",11.7%
same,Phytotoxicity Rating (% Crop Injury),"[1]; 15-hybrid (WT × GM40 restorer, A122 hetero), 100 g ai/ha + 0.25% NIS, 21 DAT",11.7%
same,Phytotoxicity Rating (% Crop Injury),"[1]; 15-hybrid (WT × GM40 restorer, A122 hetero), 200 g ai/ha + 0.25% NIS, 7 DAT",16.7%
same,Phytotoxicity Rating (% Crop Injury),"[1]; 15-hybrid (WT × GM40 restorer, A122 hetero), 200 g ai/ha + 0.25% NIS, 21 DAT",30.0%
same,Phytotoxicity Rating (% Crop Injury),"[1]; 16-hybrid (WT × GM40 restorer, A122 hetero), 50 g ai/ha + 0.25% NIS, 7 DAT",10.0%
same,Phytotoxicity Rating (% Crop Injury),"[1]; 16-hybrid (WT × GM40 restorer, A122 hetero), 50 g ai/ha + 0.25% NIS, 21 DAT",6.7%
same,Phytotoxicity Rating (% Crop Injury),"[1]; 16-hybrid (WT × GM40 restorer, A122 hetero), 100 g ai/ha + 0.25% NIS, 7 DAT",15.0%
same,Phytotoxicity Rating (% Crop Injury),"[1]; 16-hybrid (WT × GM40 restorer, A122 hetero), 100 g ai/ha + 0.25% NIS, 21 DAT",16.7%
same,Phytotoxicity Rating (% Crop Injury),"[1]; 16-hybrid (WT × GM40 restorer, A122 hetero), 200 g ai/ha + 0.25% NIS, 7 DAT",23.3%
same,Phytotoxicity Rating (% Crop Injury),"[1]; 16-hybrid (WT × GM40 restorer, A122 hetero), 200 g ai/ha + 0.25% NIS, 21 DAT",31.7%
same,phytotoxicity,"[1]; heterozygous A205V/A122T lines, 21 DAT",2-3%
same,phytotoxicity,"[1]; homozygous A122T/A122T lines, 21 DAT",3-5%
same,phytotoxicity,"[1]; homozygous A205V/A205V lines, 21 DAT",15-22%
same,AHAS activity,"[2]; A205V homozygous (Set 2), 50 μM",30%
same,AHAS activity,"[2]; A205V homozygous (Set 2), 100 μM",26%
same,AHAS activity,"[2]; A205V homozygous hybrid (Set 1), 100 μM",36 % of untreated control
same,AHAS activity,[3],59%
same,AHAS activity,"[4]; A122T homozygous (Set 2), 50 μM",63 % relative to the untreated co
same,AHAS activity,"[4]; A122T homozygous (Set 2), 100 μM",60 % relative to the untreated co
same,AHAS activity,"[4]; A122T homozygous hybrid (Set 1), 100 μM",69 % of untreated control
